Measured values taken from ChEMBL document CHEMBL1201862, “PubChem BioAssay data set” (2004).
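Test compounds were applied to cells in 96-well plates for 48 hours at 5 doses. GI50 = concentration required for 50% inhibition of growth.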 The source made the active and inactive calls. No stated cut-off is given here; in the data, active = GI50 up to about 1.1 µM and inactive = higher.

How the values were obtained:
Experiment in all cases: NCI-60 cell line screen, 48 h
U-251 = tested on: U-251
786-0 = tested on: 786-0
ACHN = tested on: ACHN
RPMI-8226 = tested on: RPMI-8226
M14 = tested on: M14
A549 = tested on: A549
OVCAR-4 = tested on: OVCAR-4
DLD-1 = tested on: DLD-1
DMS-273 = tested on: DMS-273
HT-29 = tested on: HT-29
M19-MEL = tested on: M19-MEL
LOX IMVI = tested on: LOX IMVI
SK-MEL-5 = tested on: SK-MEL-5
SNB-19 = tested on: SNB-19
KM12 = tested on: KM12
NCI-H23 = tested on: NCI-H23
UACC-257 = tested on: UACC-257
SNB-78 = tested on: SNB-78
UACC-62 = tested on: UACC-62
HCT-116 = tested on: HCT-116
HOP-62 = tested on: HOP-62
SF-268 = tested on: SF-268
SK-OV-3 = tested on: SK-OV-3
NCI-H460 = tested on: NCI-H460
UO-31 = tested on: UO-31
SK-MEL-2 = tested on: SK-MEL-2
LXFL 529 = tested on: LXFL 529
MOLT-4 = tested on: MOLT-4
Malme-3M = tested on: Malme-3M
OVCAR-8 = tested on: OVCAR-8
CCRF-CEM = tested on: CCRF-CEM
IGROV-1 = tested on: IGROV-1
HCT-15 = tested on: HCT-15
SR = tested on: SR
SW-620 = tested on: SW-620
SN12C = tested on: SN12C
SF-295 = tested on: SF-295
HL-60 = tested on: HL-60
TK-10 = tested on: TK-10
K562 = tested on: K562
SF-539 = tested on: SF-539
EKVX = tested on: EKVX
COLO 205 = tested on: COLO 205
A498 = tested on: A498
HOP-18 = tested on: HOP-18
OVCAR-3 = tested on: OVCAR-3
SK-MEL-28 = tested on: SK-MEL-28
NCI-H522 = tested on: NCI-H522
RXF 393 = tested on: RXF 393
OVCAR-5 = tested on: OVCAR-5
DMS-114 = tested on: DMS-114
SNB-75 = tested on: SNB-75
HOP-92 = tested on: HOP-92
NCI-H226 = tested on: NCI-H226
CAKI-1 = tested on: CAKI-1
KM-20L2 = tested on: KM-20L2
HCC 2998 = tested on: HCC 2998

CN(C)CCC(/C=C/c1ccccc1)=N\Nc1c(F)c(F)c(F)c(F)c1F
GI50 (U-251): > 100 µM (inactive)
GI50 (786-0): > 100 µM (inactive)
GI50 (ACHN): 49.1 µM (inactive)
GI50 (RPMI-8226): 24.8 µM (inactive)
GI50 (M14): 44.1 µM (inactive)
GI50 (A549): 72.6 µM (inactive)
GI50 (OVCAR-4): > 100 µM (inactive)
GI50 (DLD-1): > 100 µM (inactive)
GI50 (DMS-273): 36.8 µM (inactive)
GI50 (HT-29): 27 µM (inactive)
GI50 (M19-MEL): 39.4 µM (inactive)
GI50 (LOX IMVI): > 100 µM (inactive)
GI50 (SK-MEL-5): 15.5 µM (inactive)
GI50 (SNB-19): > 100 µM (inactive)
GI50 (KM12): > 100 µM (inactive)
GI50 (NCI-H23): > 100 µM (inactive)
GI50 (UACC-257): 26.4 µM (inactive)
GI50 (SNB-78): 50.9 µM (inactive)
GI50 (UACC-62): 49.2 µM (inactive)
GI50 (HCT-116): > 100 µM (inactive)
GI50 (HOP-62): > 100 µM (inactive)
GI50 (SF-268): > 100 µM (inactive)
GI50 (SK-OV-3): > 100 µM (inactive)
GI50 (NCI-H460): 27.7 µM (inactive)
GI50 (UO-31): 76.4 µM (inactive)
GI50 (SK-MEL-2): 41.6 µM (inactive)
GI50 (LXFL 529): 77.8 µM (inactive)
GI50 (MOLT-4): 45.1 µM (inactive)
GI50 (Malme-3M): 38 µM (inactive)
GI50 (OVCAR-8): 53.8 µM (inactive)
GI50 (CCRF-CEM): 55.6 µM (inactive)
GI50 (IGROV-1): > 100 µM (inactive)
GI50 (HCT-15): 56.8 µM
GI50 (SR): 28.4 µM (inactive)
GI50 (SW-620): > 100 µM (inactive)
GI50 (SN12C): 64.6 µM (inactive)
GI50 (SF-295): 28.6 µM (inactive)
GI50 (HL-60): 16 µM (inactive)
GI50 (TK-10): > 100 µM (inactive)
GI50 (K562): 39.4 µM (inactive)
GI50 (SF-539): > 100 µM (inactive)
GI50 (EKVX): > 100 µM (inactive)
GI50 (COLO 205): > 100 µM (inactive)
GI50 (A498): 62.2 µM (inactive)
GI50 (HOP-18): 44.1 µM (inactive)
GI50 (OVCAR-3): > 100 µM (inactive)
GI50 (SK-MEL-28): > 100 µM (inactive)
GI50 (NCI-H522): 64.1 µM (inactive)
GI50 (RXF 393): 11.3 µM (inactive)
GI50 (OVCAR-5): > 100 µM (inactive)
GI50 (DMS-114): 21.7 µM (inactive)
GI50 (SNB-75): 9.82 µM (inactive)

COc1ccc(/C(Cl)=C(\CN(C)C)c2ccc(OC)c(OC)c2)cc1OC.[B]
GI50 (U-251): 8.61 µM (inactive)
GI50 (786-0): 15.9 µM (inactive)
GI50 (ACHN): > 100 µM (inactive)
GI50 (RPMI-8226): > 100 µM (inactive)
GI50 (M14): > 100 µM (inactive)
GI50 (A549): > 100 µM (inactive)
GI50 (OVCAR-4): 1.19 µM (inactive)
GI50 (DLD-1): > 100 µM (inactive)
GI50 (DMS-273): 2.34 µM (inactive)
GI50 (HT-29): > 100 µM (inactive)
GI50 (LOX IMVI): > 100 µM (inactive)
GI50 (SK-MEL-5): > 100 µM (inactive)
GI50 (SNB-19): 17 µM (inactive)
GI50 (HOP-92): 2.22 µM (inactive)
GI50 (KM12): > 100 µM (inactive)
GI50 (NCI-H23): 95.1 µM (inactive)
GI50 (NCI-H226): > 100 µM (inactive)
GI50 (UACC-257): > 100 µM (inactive)
GI50 (SNB-78): 10.1 µM (inactive)
GI50 (UACC-62): 3.94 µM (inactive)
GI50 (HCT-116): 38.8 µM (inactive)
GI50 (HOP-62): 24.3 µM (inactive)
GI50 (SF-268): > 100 µM (inactive)
GI50 (SK-OV-3): 14.2 µM (inactive)
GI50 (NCI-H460): > 100 µM (inactive)
GI50 (CAKI-1): > 100 µM (inactive)
GI50 (UO-31): > 100 µM (inactive)
GI50 (LXFL 529): > 100 µM (inactive)
GI50 (MOLT-4): > 100 µM (inactive)
GI50 (OVCAR-8): > 100 µM (inactive)
GI50 (CCRF-CEM): > 100 µM (inactive)
GI50 (IGROV-1): > 100 µM (inactive)
GI50 (HCT-15): > 100 µM
GI50 (SR): > 100 µM (inactive)
GI50 (SW-620): > 100 µM (inactive)
GI50 (SN12C): > 100 µM (inactive)
GI50 (KM-20L2): > 100 µM (inactive)
GI50 (SF-295): 12.7 µM (inactive)
GI50 (HL-60): > 100 µM (inactive)
GI50 (TK-10): 13.7 µM (inactive)
GI50 (K562): > 100 µM (inactive)
GI50 (SF-539): 4.72 µM (inactive)
GI50 (EKVX): > 100 µM (inactive)
GI50 (HCC 2998): > 100 µM (inactive)
GI50 (A498): 33.9 µM (inactive)
GI50 (HOP-18): > 100 µM (inactive)
GI50 (RXF 393): 15.7 µM (inactive)
GI50 (OVCAR-5): > 100 µM (inactive)
GI50 (SNB-75): 2.5 µM (inactive)
